Experimental data from US12673019B2, “Skin care composition” (Conopco, Inc., priority 2021, dated 2026).

System: interleukin (IL)-6
Experiment: Human immune cell line THP-1 in vitro assay: IL-6 in supernatant of LPS-treated differentiated THP1-XBlue cells (ELISA)
Type: cell-based
Conditions: differentiated THP1-XBlue cells co-treated with E. coli LPS and composition, 24 hours; percentage to LPS-treated cells = 100%; three repeats
Method: Human Immune Cell Line THP-1 In Vitro Assay The following procedure was used to determine the anti-inflammation efficacy: THP1-XBlue™ (Cat No. thpx-sp, InvivoGen, San Diego, CA) cells were cultured as suspension in RPMI 1640 medium supplemented with 10% fetal bovine serum (FBS), penicillin (10 U/mL)-streptomycin (10 μg/mL) (Cat No. 15140122, Invitrogen, Carlsbad, CA). Cells were differentiated in 24-well plates at the density of 5×10^5 cells/well with 100 nM phorbol-12-myristate-13-acetate for 72 hours. Cells were then co-treated with pure E. coli lipopolysaccharides (LPS, Cat No. L2630, Sigma-Aldrich) and various compositions in Table 1. […] Expression of IL-6 was calculated as the percentage to LPS-treated cells which was designated as 100%. P value was analysed by Student's t-test comparing combination groups and individual compound groups (expression of IL-6, three repeats for each group).

CCCCCCC(O)CCCCCCCCCCC(=O)O (stereo not shown) [B, 12-hydroxystearic acid] was tested, and the “Expression of IL-6 (%)” value was 84.4%.
